# Data: patent US8298522B1, “Methods of modulating MUC1 expression to inhibit inflammation” (priority 2005, dated 2012)
# Legend:
# [1] = test system: MUC1 transcription; assay: Trypsin-induced MUC1 transcription compared with NE; assay type: cell-based
# [2] = test system: MUC1 promoter; assay: MUC1 promoter-luciferase reporter assay in A549 cells; settings: MUC1-pGL2b-transfected A549 cells, 100 nM NE, 24 hr
# [3] = test system: Sp1 binding to the −99/−90 segment of the MUC1 promoter; assay: EMSA of Sp1 binding to the MUC1 promoter segment; parameters: species or system human; settings: A549 nuclear extracts, 100 nM NE 0-120 min
# Description: Referring now to FIG. 16, NE enhances the binding of Sp1 to the −99/−90 segment in the MUC1 promoter. Confluent A549 cells were treated with vehicle control (A) or 100 nM NE (B) for 0, 10, 20, 30, 60, or 120 min. Cells were lysed and nuclear extracts were incubated with or without 100-fold molar excess of unlabeled probe, poly(dIdC) as a non-specific competitor, or Sp1 antibody for 30 min on ice, and then incubated with a [γ-^32P]-labeled oligonucleotide corresponding to the human MUC1 promoter between nucleotides −104 and −83. DNA-protein complexes were resolved on 4.5% polyacrylamide gels and analyzed by autoradiography.
# Electrophoretic mobility shift assay (EMSA). Confluent A549 cells were treated with 100 nM NE for 0, 10, 20, 30, 60, or 120 min. Following treatment, nuclear extracts were prepared as previously described (31). […]
# Protein concentrations were measured by the procedure of Bradford (8). […] The DNA-protein complexes were resolved on 4.5% polyacrylamide gels and analyzed by autoradiography as described in Lee et al. 2004, Differential expression of mu-opioid receptor gene in CXBK and B6 mice by Sp1, Mol Pharmacol 66: 1580-1584.
# [4] = test system: MUC1 protein in A549 cells
# Description: Confluent A549 cells were incubated in the presence or absence of 5.0 μg/ml of actinomycin (AcD) or 10 μg/ml of cycloheximide (Chx) for 1 hr and either non-treated or treated for 24 hr with 100 nM of NE. MUC1 protein levels in cell lysates (A) and spent media (B) were measured by ELISA. Each bar represents the mean±SEM (n=3). […] (C) Aliquots of spent media obtained from confluent A549 cells were non-treated (0 hr) or treated for 24 hr with 100 nM NE or vehicle control and MUC1 levels in the spent media determined by ELISA. Each bar represents the mean±SEM (n=3).
# A549 cells were seeded at 5.0×10^4 cells/well in 24-well plates in Dulbecco's Modified Eagle Medium (DMEM) containing 10% fetal bovine serum (FBS), 100 U/ml penicillin, and 100 μg/ml streptomycin (all from Invitrogen, Carlsbad, Calif.) and incubated at 37° C. in a humidified CO2 incubator. Confluent monolayers were washed with serum-free DMEM and treated with 100 nM (2.6 U/ml) NE or vehicle control (PBS) for 24 hr. In some experiments, the cells were pretreated for 1 hr with 5.0 μg/ml of actinomycin D or 10 μg/ml of cycloheximide prior to NE treatment. Following treatment, cell-conditioned media were collected, and the cells were washed with PBS and lysed with 500 μl/well of PBS containing 1.0% Triton X-100, 1.0% sodium deoxycholate, 1.0% protease inhibitor cocktail, and 2.0 mM phenylmethylsulfonyl fluoride (PMSF). Lysates and conditioned media were incubated for 20 min at 80° C. to inactivate residual NE, insoluble material removed by centrifugation at 14,000×g for 10 min at 4° C., and protein concentrations measured by the procedure of Bradford using bovine serum albumin as standard.
# ELISA. A549 cell lysates or cell-conditioned culture media were centrifuged at 10,000×g for 10 min at 4° C., added in triplicate to 96-well ELISA plates (MaxiSorb™, Nalge Nunc, Rochester, N.Y.), and incubated overnight at 4° C. Wells were blocked for 1 hr at room temperature (about 22° C.) with PBS, pH 7.0, containing 10 mg/ml BSA and 50 mg/ml sucrose and washed with PBS containing 0.05% Tween 20 (PBS-T). The samples were reacted for 2 hr at room temperature with 200 μg/ml of primary MUC1 antibody (GP1.4), washed with PBS-T, reacted for 2 hr at room temperature with 200 μg/ml of secondary antibody (peroxidase-conjugated goat antimouse IgG) (KPL, Gaithersburg, Md.), and washed with PBS-T. Bound antibodies were detected with tetramethylbenzidine substrate (SureBlue™, KPL), the substrate reaction stopped with 1 N HCl, and absorbencies at 450 nm measured using a microplate spectrophotometer (Dexall, Gaithersburg, Md.).
# [5] = test system: MUC1 mRNA; assay: Effect of NE on MUC1 mRNA expression and stability in A549 cells (real time RT-PCR); assay type: cell-based, human
# Description: Referring now to FIG. 11. […] MUC1 mRNA levels were measured by real time RT-PCR and normalized to GAPDH mRNA levels. Each data point represents the mean±SEM (n=3).
# Effect of NE on MUC1 mRNA expression. A549 cells were seeded in DMEM plus 10% FBS in 24-well plates at 5.0×10^4 cells/well, cultured to confluence for 24 hr at 37° C., and treated for 24 hr with various concentrations of NE (0, 10, 25, 50, 100, or 150 nM) or vehicle control. […] At the end of each chase period, the cells were washed with PBS and MUC1 transcripts quantified by real time RT-PCR.
# Real time RT-PCR. Total RNA was isolated using RNeasy (Qiagen, Valencia, Calif.) and 2.0 μg was reverse transcribed using the iScript cDNA Synthesis kit (BioRad, Hercules, Calif.) in a total volume of 20 μl. Real time PCR was carried out using the Taqman probes and iQ™ Supermix (BioRad) according to the manufacturer's instructions. Briefly, 2.0 μl of cDNA or control plasmid was used as template for amplification in the iCycler (BioRad) with 200 nM of MUC1 or GAPDH (internal control) primers and probes. […] The CT value was defined as the number of PCR cycles required for the specific fluorescence signal to exceed the detection threshold value set by the software installed in the iCycler. […] The levels of MUC1 and GAPDH mRNAs were calculated from the standard curves and the expression of MUC1 transcripts was normalized to GAPDH transcripts.
# [6] = test system: MUC1; assay: Degradation of MUC1 in spent medium aliquots by NE (ELISA); assay type: biochemical, human; settings: spent medium of A549 cells, 100 nM NE, 24 hr
# Description: To verify the ability of NE to degrade MUC1, aliquots of a spent medium sample containing MUC1 molecules were incubated for 24 hr in the presence of NE and the amounts of MUC1 measured by ELISA.
time of maximum Sp1 binding to the MUC1 promoter segment in the presence of NE [3],Substance,activity in inducing MUC1 transcription relative to that of NE [1],MUC1 promoter luciferase activity compared with vehicle control [2],"MUC1 in spent media compared with the control group ([4]; A549 cells, 100 nM NE 24 hr, with or without AcD or Chx pretreatment)","increase of MUC1 levels in cell lysates compared with 24 hr control ([4]; confluent A549 cells, 100 nM NE, 24 hr)","effect on MUC1 mRNA stability ([5]; 100 nM NE 24 hr, chase with 5.0 μg/ml actinomycin D 0-24 hr)","MUC1 mRNA levels with increasing doses and time ([5]; NE 0-150 nM, real time RT-PCR)",MUC1 remaining in spent medium aliquots after incubation with NE [6]
–,Trypsin,less than 10%,–,–,–,–,–,–
60 min,neutrophil elastase,–,significantly higher luciferase activity,45%,33%,does not alter MUC1 mRNA stability,progressively higher MUC1 mRNA levels,no detectable amounts of MUC1
